Assay results taken from the NIST ThermoML archive (doi:10.1021/je900882r).
± gives the expanded uncertainty stated by the source.

Tests used:
[1] = mn = molality of the nth substance listed, in mol/kg; conditions: 298.15 K, 101 kPa, Liquid
[2] = refractive index (Na D-line) (dimensionless); mn = molality of the nth substance listed, in mol/kg; conditions: 298.15 K, 101 kPa, Liquid
[3] = cn = amount concentration of the nth substance listed, in mol/dm3; conditions: 298.15 K, 101 kPa, Liquid; for molar conductivity: Alternating current cell with electrodes; for viscosity: Capillary tube (Ostwald / Ubbelohde) method

CCCCn1cc[n+](C)c1.[Br-] [1-butyl-3-methylimidazolium bromide] + O
Conditions	mass density, [1] [kg/m3]	refractive index, [2]
m1 = 0.0909	1001.54 ± 1	1.3357 ± 0.0006
m1 = 0.0915	1001.77 ± 1	1.3359 ± 0.0006
m1 = 0.097	1001.97 ± 1	1.336 ± 0.0006
m1 = 0.1797	1005.97 ± 1.1	1.3382 ± 0.0006
m1 = 0.1833	1006.34 ± 1.1	1.3388 ± 0.0006
m1 = 0.185	1006.46 ± 1.1	1.339 ± 0.0006
m1 = 0.267	1010.2 ± 1.1	1.3407 ± 0.0006
m1 = 0.2863	1011.4 ± 1.1	1.3416 ± 0.0006
m1 = 0.2866	1011.29 ± 1.1	1.3414 ± 0.0006
m1 = 0.3496	1014.39 ± 1.2	1.343 ± 0.0006
m1 = 0.3564	1014.36 ± 1.2	1.3433 ± 0.0006
m1 = 0.3651	1014.07 ± 1.2	1.3437 ± 0.0006

CC(C)[C@H](N)C(=O)O [L-valine] + O
Conditions	mass density [kg/m3]	molar conductivity [S·m2/mol]	viscosity [mPa·s]
[1], m1 = 0.1173	1000.17 ± 0.22	–	–
[1], m1 = 0.1402	1000.77 ± 0.22	–	–
[1], m1 = 0.1894	1002.03 ± 0.23	–	–
[1], m1 = 0.2512	1003.59 ± 0.23	–	–
[1], m1 = 0.2973	1004.74 ± 0.23	–	–
[1], m1 = 0.3211	1005.32 ± 0.23	–	–
[1], m1 = 0.3841	1006.84 ± 0.23	–	–
[1], m1 = 0.4378	1008.11 ± 0.24	–	–
[3], c1 = 0.0007166	–	0.0153 ± 0.00031	–
[3], c1 = 0.001486	–	0.0148 ± 0.0003	–
[3], c1 = 0.002275	–	0.0146 ± 0.00029	–
[3], c1 = 0.003892	–	0.0145 ± 0.00029	–
[3], c1 = 0.00566	–	0.0142 ± 0.00028	–
[3], c1 = 0.007383	–	0.0139 ± 0.00028	–
[3], c1 = 0.00904	–	0.0137 ± 0.00028	–
[3], c1 = 0.0116	–	0.0135 ± 0.00027	–
[3], c1 = 0.01431	–	0.0132 ± 0.00026	–
[3], c1 = 0.01747	–	0.0129 ± 0.00026	–
[3], c1 = 0.1173	–	–	0.892 ± 0.04
[3], c1 = 0.1403	–	–	0.899 ± 0.04
[3], c1 = 0.1898	–	–	0.906 ± 0.04
[3], c1 = 0.2521	–	–	0.916 ± 0.04
[3], c1 = 0.2987	–	–	0.938 ± 0.04
[3], c1 = 0.3228	–	–	0.943 ± 0.041
[3], c1 = 0.3867	–	–	0.958 ± 0.041
[3], c1 = 0.4413	–	–	0.979 ± 0.041

[2], Standard Abbe refractometry
Conditions	refractive index
m1 = 0.1173	1.3348 ± 0.0004
m1 = 0.1402	1.3353 ± 0.0004
m1 = 0.1894	1.3363 ± 0.0004
m1 = 0.2512	1.3375 ± 0.0004
m1 = 0.2973	1.3384 ± 0.0004
m1 = 0.3211	1.3389 ± 0.0004
m1 = 0.3841	1.3401 ± 0.0004
m1 = 0.4378	1.341 ± 0.0004
